According to patent EP3355943B1, “METHODS AND SYSTEMS FOR TREATING MEDICAL DEVICES AND FLUIDS” (Ethicon, Inc., priority 2015, dated 2017):
Several values for one entry are separate records, joined by “and”; a condition that tells them apart may be missing. Equal entries are not always repeated.

Legend:
[1] = Detection of LPS after adding CaSt powder to water spiked with LPS (Kinetic Chromogenic Method for Endotoxin Quantitation); type: biochemical
Method: Water and aqueous solutions (containing LPS with various sources of endotoxin) were exposed to calcium stearate [CaSt] […] 5 mL of water solution of known endotoxin concentration (generated by spiking endotoxin-free water with water solution of known endotoxin concentration) was added to the each test tube, vortexed vigorously (1 minute) using Fisher Scientific Digital Vortex Mixer, and then placed in a warm water bath (37°C) for 1 hour. After 1 hour, the tubes were removed from warm water bath and vortexed vigorously (1 minute). Sterile syringes with needles were used to extract the solution without removing the calcium stearate. This solution was then tested for endotoxin levels. Kinetic Chromogenic Method for Endotoxin Quantitation, using Endosafe MCS Multi Cartridge System by Charles River Laboratories, Charleston S.C.

[2] = Effect of storage (dwell time) on efficacy of pre-mixed CaSt suspensions, sonicated or vortexed; type: biochemical; conditions: 0.02 g CaSt; for EU After: 15 minutes
Method: Efficacy of pre-mixed CaSt suspensions (sonicated and vortexed) was tested, comparing efficacy of immediately prepared suspensions with suspensions having shelf life or dwell time of 90 min, 5 days, and 1 month prior to contact with endotoxin containing solutions.
10 mL SRW was then introduced to the sonicated CaSt mixture. It was then vortexed for 5 seconds to fully incorporate the sonicated CaSt. The mixture was then tested after 15 minutes of interaction to measure the percent decrease of endotoxin.
10 mL SRW was then introduced to the vortexed CaSt mixture. It was then vortexed for 5 seconds to fully incorporate the sonicated CaSt. The mixture was then tested after 15 minutes of interaction to measure the percent decrease of endotoxin.
These mixtures were then tested on the Charles River MCS at a dilution of 1:2000 after 15 minutes of interaction.
Testing of suspensions having shelf life or dwell time of 90 min, 5 days, and 1 month prior to contact with endotoxin containing solutions.
Test samples were prepared as described above, sonicated and vortexed, but were subjected to shelf life or dwell time of 90 min, 5 days, and 1 month prior to contact with endotoxin containing solution (SRW). After dwell time exposure, similarly to the immediate mixing test above, 10 mL SRW was then introduced to the sonicated or vortexed CaSt mixture. It was then vortexed for 5 seconds to fully incorporate the sonicated CaSt. The mixture was then tested after 15 minutes of interaction to measure the percent decrease of endotoxin. These mixtures were then tested on the Charles River MCS at a dilution of 1:2000 after 15 minutes of interaction.
*The 1 month shelf life sample was only tested at 0.04g CaSt and measured the percent removal after 15 minutes of interaction as well as 30 minutes after interaction.

[3] = 0.0027 g CaSt in 5 ml water, 14,400 EU spiked
[4] = 0.0108 g CaSt in 5 ml water, 14,400 EU spiked
[5] = 0.0518 g CaSt in 5 ml water, 14,400 EU spiked
[6] = 0.2502 g CaSt in 5 ml water, 14,400 EU spiked
[7] = CaSt powder 0.254 g (sample 1), 0.2607 g (sample 2) in 5 ml water, 14,400 EU spiked, 0.254 g CaSt powder added
[8] = CaSt powder 0.254 g (sample 1), 0.2607 g (sample 2) in 5 ml water, 14,400 EU spiked, 0.2607 g CaSt powder added

**Q.** With `CCCCCCCCCCCCCCCCCC(=O)O` [Calcium Stearate] as the compound, how does the “Endotoxin Detected (EU)” value [1, 3] read?
**A.** The value was 11,055 EU.

**Q.** What about the “Percent of detected Endotoxin vs. initial concentration” value [1, 3] of the same compound?
**A.** Its value is 77% and 76.77%.

**Q.** And the “Endotoxin Detected (EU)” value [1, 4]?
**A.** The value was 2,925 EU.

**Q.** And the “Percent of detected Endotoxin vs. initial concentration” value [1, 4]?
**A.** Its value is 20% and 20.31%.

**Q.** And the “Endotoxin Detected (EU)” value [1, 5]?
**A.** The value was 9.4 EU.

**Q.** What about the “Percent of detected Endotoxin vs. initial concentration” value [1, 5] of the same compound?
**A.** The value was 0.07%.

**Q.** What about the “Endotoxin Detected (EU)” value [1, 6] of the same compound?
**A.** The value was 26.7 EU.

**Q.** And the “Percent of detected Endotoxin vs. initial concentration” value [1, 6]?
**A.** The value was 0.19%.

**Q.** What about the “Percent of detected Endotoxin vs. initial concentration” value ([1]; CaSt powder 0.252/0.258/0.272/0.267 g (samples 1-4) in 5 ml water, 5.208 EU spiked, 37°C 1 hour, 0.252 g CaSt powder added) of the same compound?
**A.** The value was under 2.88%.

**Q.** What about the “Percent of detected Endotoxin vs. initial concentration” value ([1]; CaSt powder 0.252/0.258/0.272/0.267 g (samples 1-4) in 5 ml water, 5.208 EU spiked, 37°C 1 hour, 0.258 g CaSt powder added) of the same compound?
**A.** The value was under 8.06%.

**Q.** What about the “Percent of detected Endotoxin vs. initial concentration” value ([1]; CaSt powder 0.252/0.258/0.272/0.267 g (samples 1-4) in 5 ml water, 5.208 EU spiked, 37°C 1 hour, 0.267 g CaSt powder added) of the same compound?
**A.** The value was under 3.46%.

**Q.** What about the “Endotoxin Detected (EU)” value [1, 7] of the same compound?
**A.** The value was 12.1 EU.

**Q.** What about the “Percent of detected Endotoxin vs. initial concentration” value [1, 7] of the same compound?
**A.** Its value is 0.08%.

**Q.** And the “Endotoxin Detected (EU)” value [1, 8]?
**A.** Its value is 10.3 EU.

**Q.** What about the “Percent of detected Endotoxin vs. initial concentration” value [1, 8] of the same compound?
**A.** Its value is 0.07%.

**Q.** And the “Average Percent Change” value ([2]; Sonicated, 5 Day dwell time)?
**A.** Its value is 76%.

**Q.** What about the “Percent Endotoxin Removed” value ([2]; Sonicated, 5 Day dwell time) of the same compound?
**A.** The value was 76%.

**Q.** And the “EU After” value ([2]; Sonicated, 5 Day dwell time, EU Before 37,800)?
**A.** Its value is 9,200 EU.

**Q.** What about the “Average Percent Change” value ([2]; Sonicated, 90 min dwell time) of the same compound?
**A.** Its value is 61%.

**Q.** And the “EU After” value ([2]; Sonicated, 90 min dwell time, EU Before 36,100, listed as Aged Sonicated CaSt #1)?
**A.** The value was 15120 EU.

**Q.** What about the “EU After” value ([2]; Sonicated, 90 min dwell time, EU Before 36,100, listed as Aged Sonicated CaSt #2) of the same compound?
**A.** The value was 12,960 EU.

**Q.** What about the “Percent Endotoxin Removed” value ([2]; Sonicated, 90 min dwell time, listed as Aged Sonicated CaSt #1) of the same compound?
**A.** Its value is 58%.

**Q.** And the “Percent Endotoxin Removed” value ([2]; Sonicated, 90 min dwell time, listed as Aged Sonicated CaSt #2)?
**A.** Its value is 64%.

**Q.** And the “Average Percent Change” value ([2]; Sonicated, Immediate Mixing)?
**A.** The value was 74%.

**Q.** What about the “EU After” value ([2]; Sonicated, Immediate Mixing, EU Before 36,100, listed as Sonicated CaSt #1) of the same compound?
**A.** The value was 8,960 EU.

**Q.** And the “EU After” value ([2]; Sonicated, Immediate Mixing, EU Before 36,100, listed as Sonicated CaSt #2)?
**A.** The value was 10,240 EU.

**Q.** What about the “Percent Endotoxin Removed” value ([2]; Sonicated, Immediate Mixing, listed as Sonicated CaSt #1) of the same compound?
**A.** Its value is 75%.

**Q.** And the “Percent Endotoxin Removed” value ([2]; Sonicated, Immediate Mixing, listed as Sonicated CaSt #2)?
**A.** Its value is 72%.

**Q.** And the “Average Percent Change” value ([2]; Vortexed, 5 Day dwell time)?
**A.** Its value is 64%.

**Q.** What about the “EU After” value ([2]; Vortexed, 5 Day dwell time, EU Before 37,800, listed as Aged Vortexed CaSt #3) of the same compound?
**A.** The value was 15,120 EU.

**Q.** What about the “EU After” value ([2]; Vortexed, 5 Day dwell time, EU Before 37,800, listed as Aged Vortexed CaSt #4) of the same compound?
**A.** Its value is 12,160 EU.

**Q.** And the “Percent Endotoxin Removed” value ([2]; Vortexed, 5 Day dwell time, listed as Aged Vortexed CaSt #3)?
**A.** The value was 60%.

**Q.** What about the “Percent Endotoxin Removed” value ([2]; Vortexed, 5 Day dwell time, listed as Aged Vortexed CaSt #4) of the same compound?
**A.** The value was 68%.

**Q.** What about the “Average Percent Change” value ([2]; Vortexed, 90 min dwell time) of the same compound?
**A.** The value was 43%.

**Q.** And the “EU After” value ([2]; Vortexed, 90 min dwell time, EU Before 36,100, listed as Aged Vortexed CaSt #1)?
**A.** The value was 22,400 EU.

**Q.** And the “EU After” value ([2]; Vortexed, 90 min dwell time, EU Before 36,100, listed as Aged Vortexed CaSt #2)?
**A.** The value was 19280 EU.

**Q.** What about the “Percent Endotoxin Removed” value ([2]; Vortexed, 90 min dwell time, listed as Aged Vortexed CaSt #1) of the same compound?
**A.** Its value is 38%.

**Q.** What about the “Percent Endotoxin Removed” value ([2]; Vortexed, 90 min dwell time, listed as Aged Vortexed CaSt #2) of the same compound?
**A.** The value was 47%.

**Q.** What about the “Average Percent Change” value ([2]; Vortexed, Immediate Mixing) of the same compound?
**A.** The value was 32%.

**Q.** What about the “EU After” value ([2]; Vortexed, Immediate Mixing, EU Before 36,100, listed as Aged Vortexed CaSt #1) of the same compound?
**A.** The value was 29,200 EU.

**Q.** What about the “EU After” value ([2]; Vortexed, Immediate Mixing, EU Before 36,100, listed as Aged Vortexed CaSt #2) of the same compound?
**A.** Its value is 20,480 EU.
